Where a name gives a salt, the structure may show the parent alone.
Assays:
[1] = tested on: IL-6 production from peripheral blood T cells; assay: IL-6 production from peripheral blood T cells (ELISA); type: cell-based, human; settings: for effect on IL-6 production from T cells: each costimulation condition
Method: (§1) The antibody-coated plates and T cells were prepared similarly as in Example 1 except that the OKT3 concentration was 0.5 μg/ml. The cytokine production by T cells was analyzed in triplicate using 96-well flat-bottomed plates by the same method employed in the T cell proliferation analysis described above. After culturing for 24 hours, the culture supernatant was tested using ELISA kit (IL-2: Biosource International, Camarillo, Calif.; IFN-γ: R&D systems, Minneapolis, Minn.) to quantify IL-2 and IFN-γ.
(§2) The present inventors analyzed the effects of H1 blockers on the production of inflammatory cytokines, such as IL-6 and TNF-α, from T cells due to the various costimulation pathways described above. This analysis was performed similarly as in Example 2 above except for the use of an ELISA kit for measuring IL-6 and TNF-α (R&D systems, Minneapolis, Minn.).

[2] = tested on: IL-6 production from macrophages; assay: IL-6 production from macrophages upon LPS stimulation (ELISA); type: cell-based, human
Description: (§3) Specifically, in order to produce IL-6 and THF-α from macrophages, peripheral blood mononuclear cells were adhered to a plastic plate to isolate and recover macrophages.

[3] = tested on: TNF-α production from peripheral blood T cells; assay: TNF-α production from peripheral blood T cells (ELISA); type: cell-based, human; settings: for effect on TNF-α production from T cells: each costimulation condition
Method: as §1, §2

[4] = tested on: IL-4 production from peripheral blood T cells; assay: IL-4 production from peripheral blood T cells (ELISA); type: cell-based, human
Method: as §1
(§4) Th2 type CD4 T cells play an important role in allergic diseases. […] This analysis was performed similarly as in Example 2 except that ELISA (IL-4: Biosource International, Camarillo, Calif.; IL-5: R&D systems, Minneapolis, Minn.) was used to quantify IL-4 and IL-5.

[5] = tested on: IFN-γ production from peripheral blood T cells; assay: IFN-γ production from peripheral blood T cells (ELISA); type: cell-based, human; settings: each costimulation condition; 24 hours; ebastine 0.1 μM to 10 μM, carebastine 1 μM to 100 μM
Method: (§5) In order to analyze whether or not H1 blockers have an inhibitory effect on cytokine production induced by the various costimulations described above, the present inventors measured Th1 type cytokines (IL-2, and IFN-γ) in the culture supernatant induced by the various costimulations described above.
as §1

[6] = tested on: IL-2 production from peripheral blood T cells; assay: IL-2 production from peripheral blood T cells (ELISA); type: cell-based, human; settings: each costimulation condition; 24 hours; up to maximum concentration (10 μM ebastine, 100 μM carebastine)
Method: as §5, §1

[7] = tested on: TNF-α production from macrophages; assay: TNF-α production from macrophages upon LPS stimulation (ELISA); type: cell-based, human
Description: as §3

[8] = tested on: IL-5 production from peripheral blood T cells; assay: IL-5 production from peripheral blood T cells (ELISA); type: cell-based, human; settings: for effect on IL-5 production: each costimulation condition, concentration-dependent
Method: as §1, §4

[9] = in vivo; cited from earlier work
PHA-stimulated T cells [10] = assay: Transendothelial migration of PHA-stimulated T cells through ECV304 monolayer; type: cell-based, human; settings: compound present during migration, eight hours
Method: Since fresh resting-stage T cells hardly migrate by permeating a monolayer of endothelial cells, these T cells were activated using PHA (10 μg/ml) prior to performing transendothelial migration analysis.
Specifically, the analysis of transendothelial migration was performed by slightly modifying a known method (Iwata S, Yamaguchi N, Munakata Y, Ikushima H, Lee J F, Hosono O, Schlossman S F, Morimoto C. “CD26/DPPIV differentially regulates the chemotaxis of T cells and monocytes toward RANTES. Possible mechanism for the switch from innate to acquired immune response.” Int Immunol. 11:417-426, 1999). Human endothelial cell strain ECV304 was obtained from the American Tissue Culture Collection (ATCC; Rockville, Md.) and cultured for 48 hours on Transwell cell culture inserts (Corning Costar, Cambridge, Mass.) with a pore size of 3.0 μm. The cells were loaded onto a 24-well plastic plate for cell culture (FALCON), and mixed with H1 blockers at various concentrations using Transwell assay medium (RPMI1640 medium, BSA 0.6%, Penicillin G/Streptomycin 1%, HEPES 50 mM). Two-hundred μl of PHA-stimulated T cells (1×10^7/ml) were then placed in the upper chamber and 600 μl of assay medium was placed in the lower chamber, and migration was performed for eight hours at 37° C. under 5% CO2. After recovery of the cells, the number of cells was counted for one minute by flow cytometry (FACSCalibur, Nippon Becton-Dickinson, Tokyo, Japan).

[11] = biological target: human recombinant H1 receptors (Homo sapiens, UniProt P35367); settings: read-out: IC50 of inhibiting ligand binding to H1 receptors; cited from earlier work
human recombinant H1 receptors, sequence (P35367 whole entry): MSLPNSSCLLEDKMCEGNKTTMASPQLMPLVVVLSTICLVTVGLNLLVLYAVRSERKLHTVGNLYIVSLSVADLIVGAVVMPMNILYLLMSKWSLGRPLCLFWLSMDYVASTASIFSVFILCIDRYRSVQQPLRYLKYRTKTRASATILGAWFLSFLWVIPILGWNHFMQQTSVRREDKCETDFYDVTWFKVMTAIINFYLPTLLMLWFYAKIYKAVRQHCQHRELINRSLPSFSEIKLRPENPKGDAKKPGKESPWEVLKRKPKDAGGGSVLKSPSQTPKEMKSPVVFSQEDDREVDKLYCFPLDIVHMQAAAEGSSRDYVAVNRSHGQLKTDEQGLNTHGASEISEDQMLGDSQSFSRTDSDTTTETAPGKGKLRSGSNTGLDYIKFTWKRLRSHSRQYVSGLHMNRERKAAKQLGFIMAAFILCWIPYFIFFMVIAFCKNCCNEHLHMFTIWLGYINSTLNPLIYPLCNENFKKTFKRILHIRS

[12] = according to the Interview Form; cited from earlier work
H2 receptors [13] = biological target: T1, H2 receptors (Homo sapiens, UniProt P25021); settings: read-out: IC50 in the inhibition of ligand binding to H2 receptors; cited from earlier work
T1 sequence (P25021 whole entry): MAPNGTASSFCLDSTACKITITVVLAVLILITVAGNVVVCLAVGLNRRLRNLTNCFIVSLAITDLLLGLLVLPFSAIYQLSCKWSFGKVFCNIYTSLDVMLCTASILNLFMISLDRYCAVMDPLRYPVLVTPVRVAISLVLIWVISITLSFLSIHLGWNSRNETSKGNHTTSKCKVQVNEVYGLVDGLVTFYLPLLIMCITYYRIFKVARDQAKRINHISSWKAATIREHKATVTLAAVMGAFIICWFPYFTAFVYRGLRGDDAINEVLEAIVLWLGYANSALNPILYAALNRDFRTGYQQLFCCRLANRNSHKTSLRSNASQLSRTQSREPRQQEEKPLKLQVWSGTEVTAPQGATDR

[14] = tested on: histamine-induced contraction in trachea samples; settings: trachea samples excised from guinea pigs; read-out: IC50 of the effects on histamine-induced contraction; cited from earlier work
H2 receptors [15] = biological target: T1, H2 receptors; settings: at maximum concentration; cited from earlier work
PHA-stimulated T cells [16] = assay: Adhesion of PHA-stimulated T cells to endothelial cells (fluorescence microscopy); settings: 1.0 μM to 5.0 μM; six hours; dose-dependent
Description: After six hours, the culture dish was washed three times with PBS.

[17] = dose increased to five times from that used for the treatment; cited from earlier work
T cells = assay: T cell proliferation (3H-thymidine incorporation) via different costimulation pathways; type: cell-based, human; settings: stimulation on CD3 combined with CD26, CD28 or PMA; all concentrations used
Method: The first pathway was PMA, the second pathway stimulation on CD28 that is one of the representative T cell costimulation molecules, and the third pathway stimulation on CD26 that is expressed on CD4^+ memory T cells. The simulation on CD3 was applied together with all of these stimulations. The stimulation on CD3, CD26, and CD28 was performed using monoclonal antibodies OKT3, 1F7 (Morimoto C et al., 1989, supra), and 4B10 (immi CD et al., 1991, supra), respectively. OKT3 was purchased from the American Tissue Culture Collection (ATCC, Rockville, Md.), while 4B10 and 1F7 were purified from mouse ascites of hybridomas established in the present inventors' laboratory (Gimmi C D et al., 1991, supra; Morimoto C et al., 1989, supra). […]
Phosphate-buffer saline (PBS) (100 μl) containing either one of the monoclonal antibodies, OKT3 (0.05 μg/ml), 1F7 (1 μg/ml), or 4B10 (2 μg/ml), was coated in triplicate according to a known method (Dang N H et al., 1990, supra) on flat-bottomed 96-well plates (Coster, Cambridge, Mass.), and the plates were then incubated overnight at 4° C. […] The cells were stimulated for eight hours with 1 μCi ^3H-thymidine (ICN Radiochemicals, Irvine, Calif.) per well, recovered on a glass fiber filter (Wallac, Turku, Finland) to quantify the incorporated radioactivity with a liquid scintillation counter (Wallac).

[18] = each costimulation condition, concentration-dependent

| Compound | effect on IL-6 production from T cells [1] | effect on IL-6 production from macrophages ([2]; eight hours) | effect on TNF-α production from T cells [3] | effect on IL-4 production [4, 18] | effect on IFN-γ production [5] | effect on IL-2 production [6] | effect on TNF-α production from macrophages ([7]; eight hours) | effect on IL-5 production [8] | maximum blood concentration [9] [µM] | effect on T cell migration (PHA-stimulated T cells [10]) | IC50 (H2 receptors [13]) [µM] | IC50 [14] [µM] | also measured |
| --- | --- | --- | --- | --- | --- | --- | --- | --- | --- | --- | --- | --- | --- |
| O=C(O)COCCN1CCN(C(c2ccccc2)c2ccc(Cl)cc2)CC1 (centres unmarked) [cetirizine hydrochloride] | did not have a clear effect | no inhibition | did not have a clear effect | did not have a clear effect | did not have a clear effect | did not have a clear effect | no inhibition | did not have a clear effect |  |  |  |  |  |
| NC1=NCC2c3ccccc3Cc3ccccc3N12 (centres unmarked) [epinastine hydrochloride, 3-amino-9,13b-dihydro-1H-dibenz(c,f)imidazol(1,5-a)azepine hydro-chloride] | no clear effect | no inhibition | no clear effect | inhibited | suppressed | suppressed | no inhibition | inhibited | 0.1 | did not have a clear effect | 0.64 ± 0.062 |  | IC50 [11]: 0.0011 ± 0.00016 µM; efficacy in the improvement of bronchial asthma to a medium degree or greater [12]: 47.0% |
| CC(C)(C(=O)O)c1ccc(C(=O)CCCN2CCC(OC(c3ccccc3)c3ccccc3)CC2)cc1 [carebastine, 4-[4-[4-(di-phenylmethoxy)-1-piperidinyl]-1-oxobutyl]-α, α-di-methylbenzeneacetic acid] | inhibited | suppressed | inhibited | inhibited | did not have a clear effect | did not inhibit | suppressed | inhibited | 0.1 | suppressed |  | 0.12 |  |
| CC(C)(C)c1ccc(C(O)CCCN2CCC(C(O)(c3ccccc3)c3ccccc3)CC2)cc1 (centres unmarked) [terfenadine] |  |  |  |  |  |  |  |  |  |  |  |  | inhibition rate to [3H]-tiotidine (H2 receptors [15]): 29% |
| CC(C)(C)c1ccc(C(=O)CCCN2CCC(OC(c3ccccc3)c3ccccc3)CC2)cc1 [ebastine, 4-diphenylmethoxy-1[3-(4-terbutyl-benzoyl)-propyl]piperidine] | inhibited | suppressed | inhibited | inhibited | did not have a clear effect | did not inhibit | suppressed | inhibited |  |  |  |  | adhesion of PHA-stimulated T cells to endothelial cells (PHA-stimulated T cells [16]): suppress; suppression of IL-6 production from T cells ([1]; 10 μM to 20 μM): 100%; suppression of IL-6 production from macrophages ([2]; 1 μM): ≥ 50%; effect on IL-6 production from macrophages ([2]; 10 μM): nearly completely inhibited; suppression of TNF-α production from T cells ([3]; 10 μM to 20 μM): 100%; effect on IL-4 production ([4]; 10 μM): nearly completely inhibited; suppression of IL-4 production ([4]; 20 μM, all donors): 100%; effect on QT interval [17]: not to affect; suppression of TNF-α production from macrophages ([7]; 1 μM): ≥ 50%; effect on TNF-α production from macrophages ([7]; 10 μM): nearly completely inhibited; suppression of IL-5 production ([8]; 20 μM, all donors): 100% |
| CN1CCC(=C2c3ccccc3CC(=O)c3sccc32)CC1 [ketotifen fumarate] | did not have a clear effect | no inhibition | did not have a clear effect | did not have a clear effect | did not have a clear effect | did not have a clear effect | no inhibition | did not have a clear effect | 0.01 | did not have a clear effect | 2.2 ± 0.45 | 0.0025 | effect on T cell proliferation (T cells): hardly inhibited |

Reference: patent US20060003988A1, “Compounds capable of inhibiting immunocyte-related allergic immune reactions” (priority 2002, published 2006)
